In the NIST ThermoML archive (doi:10.1016/j.fluid.2016.02.011):

Tests used:
[1] = refractive index (Na D-line) (dimensionless); xn = mol fraction of the nth substance listed; conditions: 100 kPa, Liquid, minimum deviations angle, x1 = 1
[2] = refractive index (Na D-line) (dimensionless); conditions: 100 kPa, Liquid, minimum deviations angle

CCCCCC[n+]1ccn(C)c1.O=S(=O)([N-]S(=O)(=O)C(F)(F)F)C(F)(F)F + Brc1ccccc1
[1]
Conditions | refractive index
282.99 K | 1.4329
284.26 K | 1.4324
285.8 K | 1.432
286.91 K | 1.4317
288.05 K | 1.4313
289.17 K | 1.431
290.22 K | 1.4307
291.28 K | 1.4304
292.38 K | 1.4301
293.39 K | 1.4298

CCCCCC[n+]1ccn(C)c1.O=S(=O)([N-]S(=O)(=O)C(F)(F)F)C(F)(F)F
[2]
Conditions | refractive index
282.99 K | 1.4329
284.26 K | 1.4324
285.8 K | 1.432
286.91 K | 1.4317
288.05 K | 1.4313
289.17 K | 1.431
290.22 K | 1.4307
291.28 K | 1.4304
292.38 K | 1.4301
293.39 K | 1.4298

Brc1ccccc1 [bromobenzene]
[2]
Conditions | refractive index
283 K | 1.5612
284.4 K | 1.5605
285.75 K | 1.5598
286.96 K | 1.5591
287.98 K | 1.5585
288.99 K | 1.558
290.11 K | 1.5574
291.22 K | 1.5568
292.32 K | 1.5563
293.32 K | 1.5557
